Source: ChEMBL document CHEMBL1201862, “PubChem BioAssay data set” (2004)
One block for each compound: values may come before it. Active and inactive are the calls of the source.

Assays:
[1] = target: Peroxisome proliferator-activated receptor gamma/Nuclear receptor coactivator 1 (Homo sapiens, UniProt P37231); format: functional;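 also: agonist potency as compounds enhance coactivator SRC-1 recruitment to PPARgamma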
[2] = target: Peroxisome proliferator-activated receptor gamma/Nuclear receptor coactivator 2 (Homo sapiens, UniProt P37231); format: functional;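 also: agonist potency for raising coactivator recruitment to the receptor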
Peroxisome proliferator-activated receptor gamma/Nuclear receptor coactivator 2, sequence (P37231 whole entry): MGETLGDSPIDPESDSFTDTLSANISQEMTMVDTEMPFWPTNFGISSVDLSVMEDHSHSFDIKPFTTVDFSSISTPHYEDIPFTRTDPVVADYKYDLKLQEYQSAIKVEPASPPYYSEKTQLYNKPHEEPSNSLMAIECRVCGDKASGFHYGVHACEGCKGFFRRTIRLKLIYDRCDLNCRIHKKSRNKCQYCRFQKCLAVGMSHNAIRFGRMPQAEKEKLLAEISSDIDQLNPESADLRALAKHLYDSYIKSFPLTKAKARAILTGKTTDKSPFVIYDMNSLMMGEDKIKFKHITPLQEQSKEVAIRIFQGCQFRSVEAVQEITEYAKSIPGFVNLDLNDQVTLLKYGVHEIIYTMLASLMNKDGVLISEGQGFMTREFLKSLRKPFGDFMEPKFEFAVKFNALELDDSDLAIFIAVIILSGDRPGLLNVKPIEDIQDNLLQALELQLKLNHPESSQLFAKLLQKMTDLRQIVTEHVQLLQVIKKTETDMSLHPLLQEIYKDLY
Peroxisome proliferator-activated receptor gamma/Nuclear receptor coactivator 2, sequence (Q15596 whole entry, further chain): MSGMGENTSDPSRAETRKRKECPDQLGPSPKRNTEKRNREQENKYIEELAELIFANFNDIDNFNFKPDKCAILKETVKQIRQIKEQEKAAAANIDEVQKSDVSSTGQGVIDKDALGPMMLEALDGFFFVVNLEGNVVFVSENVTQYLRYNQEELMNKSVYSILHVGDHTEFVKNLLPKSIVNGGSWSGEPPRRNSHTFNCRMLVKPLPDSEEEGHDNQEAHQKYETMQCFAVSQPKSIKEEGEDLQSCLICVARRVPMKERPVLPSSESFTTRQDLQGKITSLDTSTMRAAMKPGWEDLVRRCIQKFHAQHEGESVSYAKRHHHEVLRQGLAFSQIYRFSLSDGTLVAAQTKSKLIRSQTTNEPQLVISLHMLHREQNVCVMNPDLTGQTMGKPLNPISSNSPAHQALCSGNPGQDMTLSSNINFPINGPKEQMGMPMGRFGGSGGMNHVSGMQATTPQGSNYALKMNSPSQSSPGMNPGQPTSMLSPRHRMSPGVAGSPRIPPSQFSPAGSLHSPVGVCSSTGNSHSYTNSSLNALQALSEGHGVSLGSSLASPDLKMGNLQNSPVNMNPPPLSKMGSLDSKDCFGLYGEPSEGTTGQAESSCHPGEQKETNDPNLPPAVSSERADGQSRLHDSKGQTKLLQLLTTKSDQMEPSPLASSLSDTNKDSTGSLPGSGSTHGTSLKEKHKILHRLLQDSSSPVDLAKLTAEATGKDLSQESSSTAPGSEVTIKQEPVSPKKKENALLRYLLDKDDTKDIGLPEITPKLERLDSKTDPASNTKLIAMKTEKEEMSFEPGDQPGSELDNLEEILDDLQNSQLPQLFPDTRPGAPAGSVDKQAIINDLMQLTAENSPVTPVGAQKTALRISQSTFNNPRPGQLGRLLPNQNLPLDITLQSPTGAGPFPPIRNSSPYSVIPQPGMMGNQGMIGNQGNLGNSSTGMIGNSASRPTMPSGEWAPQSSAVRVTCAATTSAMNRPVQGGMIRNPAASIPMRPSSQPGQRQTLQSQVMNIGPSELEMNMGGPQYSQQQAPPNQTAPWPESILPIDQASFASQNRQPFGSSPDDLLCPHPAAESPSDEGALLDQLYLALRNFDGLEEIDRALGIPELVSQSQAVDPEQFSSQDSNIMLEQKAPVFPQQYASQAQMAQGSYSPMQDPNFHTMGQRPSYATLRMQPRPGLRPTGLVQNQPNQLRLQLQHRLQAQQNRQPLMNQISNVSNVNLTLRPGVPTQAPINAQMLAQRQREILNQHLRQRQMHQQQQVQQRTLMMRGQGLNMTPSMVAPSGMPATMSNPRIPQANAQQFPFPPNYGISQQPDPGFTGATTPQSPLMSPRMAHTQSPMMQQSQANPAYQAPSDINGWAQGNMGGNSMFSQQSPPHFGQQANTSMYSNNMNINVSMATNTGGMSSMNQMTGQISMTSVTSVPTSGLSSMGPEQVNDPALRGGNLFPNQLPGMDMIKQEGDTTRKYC

[3] = target: Peroxisome proliferator-activated receptor gamma/Nuclear receptor coactivator 3 (Homo sapiens, UniProt P37231); format: functional;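 also: agonist potency for raising coactivator recruitment to the receptor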
[4] = HIV-1 Env-mediated cell fusion inhibitors, dose response, CCR5-tropic Env (AID 2279); format: functional
[5] = target: T1, High affinity choline transporter 1 (Homo sapiens, UniProt Q9GZV3); assay: CHT inhibitors, dose response, cell-based, 10-point CRC, membrane potential dye (AID 588401); format: functional;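 also: membrane potential dye fluorescence of choline-evoked depolarization via CHT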
T1 sequence (Q9GZV3 whole entry): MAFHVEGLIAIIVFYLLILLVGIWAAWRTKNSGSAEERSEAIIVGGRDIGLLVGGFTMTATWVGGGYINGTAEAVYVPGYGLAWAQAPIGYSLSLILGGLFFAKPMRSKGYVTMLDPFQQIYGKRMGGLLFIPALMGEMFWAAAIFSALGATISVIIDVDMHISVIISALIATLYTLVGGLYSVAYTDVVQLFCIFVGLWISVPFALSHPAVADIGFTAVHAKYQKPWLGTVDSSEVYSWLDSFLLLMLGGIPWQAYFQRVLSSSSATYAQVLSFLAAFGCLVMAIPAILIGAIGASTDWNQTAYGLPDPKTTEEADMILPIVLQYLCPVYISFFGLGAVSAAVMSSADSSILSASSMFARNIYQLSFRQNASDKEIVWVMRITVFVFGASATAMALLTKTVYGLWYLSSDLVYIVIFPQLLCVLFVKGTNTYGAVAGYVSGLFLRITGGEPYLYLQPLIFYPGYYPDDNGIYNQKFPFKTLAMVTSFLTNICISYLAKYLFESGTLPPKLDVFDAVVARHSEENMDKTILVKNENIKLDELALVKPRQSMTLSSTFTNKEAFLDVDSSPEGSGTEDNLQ

[6] = target: T1, High affinity choline transporter 1; assay: CHT inhibitors, dose response, cell-based, 5-point CRC, membrane potential dye (AID 504840); format: functional
[7] = target: Induced myeloid leukemia cell differentiation protein Mcl-1 (Homo sapiens, UniProt Q07820); format: functional
Induced myeloid leukemia cell differentiation protein Mcl-1, sequence (Q07820 whole entry): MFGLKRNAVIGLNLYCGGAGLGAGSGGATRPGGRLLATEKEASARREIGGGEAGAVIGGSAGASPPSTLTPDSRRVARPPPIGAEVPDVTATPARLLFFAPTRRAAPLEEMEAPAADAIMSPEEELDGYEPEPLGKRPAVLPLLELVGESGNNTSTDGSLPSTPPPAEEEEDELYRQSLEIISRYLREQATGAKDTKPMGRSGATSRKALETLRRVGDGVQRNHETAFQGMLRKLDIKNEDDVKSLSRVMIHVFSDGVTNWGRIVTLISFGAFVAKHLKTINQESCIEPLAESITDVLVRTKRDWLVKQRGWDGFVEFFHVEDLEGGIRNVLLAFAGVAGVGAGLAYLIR

[8] = target: NS3 (Hepatitis C virus, UniProt A3EZJ3); assay: PubChem AID 2173; design: species or system Hepacivirus hominis
NS3, sequence (A3EZJ3 whole entry): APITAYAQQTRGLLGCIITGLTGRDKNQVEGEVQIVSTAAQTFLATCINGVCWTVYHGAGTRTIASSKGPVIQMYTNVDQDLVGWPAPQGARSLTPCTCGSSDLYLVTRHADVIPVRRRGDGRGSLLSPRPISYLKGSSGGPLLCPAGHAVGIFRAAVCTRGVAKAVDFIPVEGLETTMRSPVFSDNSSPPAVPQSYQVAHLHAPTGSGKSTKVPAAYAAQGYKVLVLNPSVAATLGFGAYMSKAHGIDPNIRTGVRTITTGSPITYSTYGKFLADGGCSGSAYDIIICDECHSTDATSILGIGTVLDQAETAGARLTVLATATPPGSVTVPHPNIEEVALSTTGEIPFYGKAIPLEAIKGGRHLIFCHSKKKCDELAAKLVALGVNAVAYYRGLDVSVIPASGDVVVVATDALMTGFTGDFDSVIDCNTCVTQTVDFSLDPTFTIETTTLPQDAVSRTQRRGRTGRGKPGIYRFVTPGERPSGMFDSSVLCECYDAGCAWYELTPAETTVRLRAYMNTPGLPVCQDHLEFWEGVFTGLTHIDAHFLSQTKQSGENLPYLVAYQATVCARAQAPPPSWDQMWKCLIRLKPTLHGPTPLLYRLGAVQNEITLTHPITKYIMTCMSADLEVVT

[9] = THP-1 cell cytotoxicity, dose response, cytotoxicity control for Vif-APOBEC3G degradation inhibitor project, THP-1 cells (AID 1117359); format: functional; conditions: Human immunodeficiency virus 1, THP-1
[10] = enhancers of respiration in Yfh1-depleted yeast, dose response, Friedreich's ataxia, plus single-dose screen (AID 1465); format: functional;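 also: yeast depleted of Yfh1p frataxin homolog grown on glycerol needing respiration; WST-1 tetrazolium dye reduction as measure of cellular dehydrogenase metabolic activity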
[11] = target: T2, Mannose-6-phosphate isomerase (Homo sapiens, UniProt P34949); assay: human PMI inhibitors, high substrate, primary screen, biochemical, fluorescence intensity, high mannose 6-phosphate (AID 1220)
T2 sequence (P34949 whole entry): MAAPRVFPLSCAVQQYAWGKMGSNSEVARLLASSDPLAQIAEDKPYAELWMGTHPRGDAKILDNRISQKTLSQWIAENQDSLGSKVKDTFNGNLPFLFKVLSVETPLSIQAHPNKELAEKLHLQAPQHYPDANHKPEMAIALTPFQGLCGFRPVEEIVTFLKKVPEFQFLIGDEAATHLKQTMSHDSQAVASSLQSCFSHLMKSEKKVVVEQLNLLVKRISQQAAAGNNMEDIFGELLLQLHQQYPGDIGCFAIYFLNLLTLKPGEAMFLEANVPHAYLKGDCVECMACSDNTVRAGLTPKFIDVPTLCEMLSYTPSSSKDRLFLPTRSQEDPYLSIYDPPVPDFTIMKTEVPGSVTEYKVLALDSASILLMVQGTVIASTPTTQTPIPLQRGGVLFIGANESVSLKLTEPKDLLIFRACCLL

Peroxisome proliferator-activated receptor gamma/Nuclear receptor coactivator 1, sequence (P37231 whole entry): as the sequence (P37231 whole entry) above
Peroxisome proliferator-activated receptor gamma/Nuclear receptor coactivator 1, sequence (Q15788 whole entry, further chain): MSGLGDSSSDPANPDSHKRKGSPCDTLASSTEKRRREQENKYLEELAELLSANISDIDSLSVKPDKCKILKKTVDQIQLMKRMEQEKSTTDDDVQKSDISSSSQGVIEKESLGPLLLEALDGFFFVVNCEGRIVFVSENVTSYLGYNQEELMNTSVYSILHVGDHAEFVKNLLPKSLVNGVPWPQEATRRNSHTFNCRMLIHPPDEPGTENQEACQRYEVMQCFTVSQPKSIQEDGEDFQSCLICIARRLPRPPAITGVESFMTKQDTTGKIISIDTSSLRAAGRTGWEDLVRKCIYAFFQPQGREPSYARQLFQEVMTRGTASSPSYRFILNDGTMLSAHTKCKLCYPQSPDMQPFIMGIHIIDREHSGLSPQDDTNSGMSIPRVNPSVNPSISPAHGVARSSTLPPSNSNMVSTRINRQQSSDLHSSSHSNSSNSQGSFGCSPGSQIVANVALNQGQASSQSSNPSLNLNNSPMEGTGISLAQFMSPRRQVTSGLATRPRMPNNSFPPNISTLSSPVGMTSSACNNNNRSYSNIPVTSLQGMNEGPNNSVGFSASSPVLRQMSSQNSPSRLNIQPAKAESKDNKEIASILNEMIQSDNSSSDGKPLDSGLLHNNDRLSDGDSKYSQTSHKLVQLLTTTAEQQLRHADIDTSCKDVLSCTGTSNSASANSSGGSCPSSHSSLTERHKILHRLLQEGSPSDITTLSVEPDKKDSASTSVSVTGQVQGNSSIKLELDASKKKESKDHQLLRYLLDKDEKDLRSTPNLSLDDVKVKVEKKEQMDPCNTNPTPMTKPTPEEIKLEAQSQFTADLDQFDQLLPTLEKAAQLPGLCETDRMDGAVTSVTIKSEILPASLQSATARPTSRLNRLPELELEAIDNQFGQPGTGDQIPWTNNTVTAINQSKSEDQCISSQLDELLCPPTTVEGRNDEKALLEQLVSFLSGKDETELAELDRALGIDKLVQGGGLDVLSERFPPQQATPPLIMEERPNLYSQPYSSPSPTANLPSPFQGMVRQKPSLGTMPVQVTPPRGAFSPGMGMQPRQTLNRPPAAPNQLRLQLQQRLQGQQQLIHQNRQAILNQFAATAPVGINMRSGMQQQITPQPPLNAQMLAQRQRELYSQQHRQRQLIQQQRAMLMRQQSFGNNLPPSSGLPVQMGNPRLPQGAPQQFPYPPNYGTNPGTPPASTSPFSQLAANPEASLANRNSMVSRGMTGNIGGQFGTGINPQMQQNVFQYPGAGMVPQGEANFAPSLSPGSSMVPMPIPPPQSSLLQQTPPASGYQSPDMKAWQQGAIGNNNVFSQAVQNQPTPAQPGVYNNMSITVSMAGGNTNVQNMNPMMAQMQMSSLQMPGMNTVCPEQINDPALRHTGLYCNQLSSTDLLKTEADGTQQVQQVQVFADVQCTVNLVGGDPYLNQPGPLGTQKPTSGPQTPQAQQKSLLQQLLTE

EC50 [1]: 17.6 µM (not active)
EC50 [2]: 16 µM (not active)
EC50 [3]: 19.9 µM (not active)
Structure (SMILES): O=C(NC(=S)Nc1ccccc1)c1ccc(Br)o1

Structure (SMILES): CCS(=O)(=O)C1=NSC2=NC(=O)/C(=C\c3ccc(OS(=O)(=O)c4ccccc4)cc3)C(=N)N21
IC50 [4]: 36.5 µM (active)
IC50 [5]: 8.91 µM (active)
IC50 [6]: 5.22 µM (active)

IC50 [7]: 7.33 µM (active)
IC50 [8]: 5.31 µM (active)
IC50 [11]: 5.36 µM (active)
Structure (SMILES): CCN(CC)S(=O)(=O)c1cccc(C(=O)N/N=C/c2ccc(O)c(O)c2O)c1
CC50 [9]: > 40 µM (active)
EC50 [10]: > 100 µM (active)
